# In patent US6965021B2, “Feedback-resistant pyruvate carboxylase gene from corynebacterium” (Archer-Daniels-Midland Company, priority 2000, dated 2005):
# How the values were obtained:
# [1] = tested on: Nc1ncnc2c1ncn2[C@@H]1O[C@H](COP(=O)(O)OP(=O)(O)OP(=O)(O)O)[C@@H](O)[C@H]1O; experiment: purified protein, by the assay type; details: other: permeabilized cells, pH 7.5, 30° C.
# Description: (§7) To account for the intrinsic loss of OAA during the experiment, a continuous assay was carried out by coupling the two-reaction assay to a one-reaction assay in presence of an excess of citrate synthase. […]
# [2] = tested on: CC(=O)C(=O)O; experiment: purified protein, by the assay type; details: other: permeabilized cells, pH 7.5, 30° C.
# Description: as §7
# [3] = target: T1, Corynebacterium glutamicum ATCC 21253 pyruvate carboxylase, wild type, SEQ ID NO:19 (Corynebacterium glutamicum, UniProt H7C7K2); experiment: Continuous pyruvate carboxylase assay (permeabilized cells), ATCC 21253; assay type: biochemical
# T1 construct: coupled citrate synthase/DTNB assay
# T1 sequence (H7C7K2 1-1140): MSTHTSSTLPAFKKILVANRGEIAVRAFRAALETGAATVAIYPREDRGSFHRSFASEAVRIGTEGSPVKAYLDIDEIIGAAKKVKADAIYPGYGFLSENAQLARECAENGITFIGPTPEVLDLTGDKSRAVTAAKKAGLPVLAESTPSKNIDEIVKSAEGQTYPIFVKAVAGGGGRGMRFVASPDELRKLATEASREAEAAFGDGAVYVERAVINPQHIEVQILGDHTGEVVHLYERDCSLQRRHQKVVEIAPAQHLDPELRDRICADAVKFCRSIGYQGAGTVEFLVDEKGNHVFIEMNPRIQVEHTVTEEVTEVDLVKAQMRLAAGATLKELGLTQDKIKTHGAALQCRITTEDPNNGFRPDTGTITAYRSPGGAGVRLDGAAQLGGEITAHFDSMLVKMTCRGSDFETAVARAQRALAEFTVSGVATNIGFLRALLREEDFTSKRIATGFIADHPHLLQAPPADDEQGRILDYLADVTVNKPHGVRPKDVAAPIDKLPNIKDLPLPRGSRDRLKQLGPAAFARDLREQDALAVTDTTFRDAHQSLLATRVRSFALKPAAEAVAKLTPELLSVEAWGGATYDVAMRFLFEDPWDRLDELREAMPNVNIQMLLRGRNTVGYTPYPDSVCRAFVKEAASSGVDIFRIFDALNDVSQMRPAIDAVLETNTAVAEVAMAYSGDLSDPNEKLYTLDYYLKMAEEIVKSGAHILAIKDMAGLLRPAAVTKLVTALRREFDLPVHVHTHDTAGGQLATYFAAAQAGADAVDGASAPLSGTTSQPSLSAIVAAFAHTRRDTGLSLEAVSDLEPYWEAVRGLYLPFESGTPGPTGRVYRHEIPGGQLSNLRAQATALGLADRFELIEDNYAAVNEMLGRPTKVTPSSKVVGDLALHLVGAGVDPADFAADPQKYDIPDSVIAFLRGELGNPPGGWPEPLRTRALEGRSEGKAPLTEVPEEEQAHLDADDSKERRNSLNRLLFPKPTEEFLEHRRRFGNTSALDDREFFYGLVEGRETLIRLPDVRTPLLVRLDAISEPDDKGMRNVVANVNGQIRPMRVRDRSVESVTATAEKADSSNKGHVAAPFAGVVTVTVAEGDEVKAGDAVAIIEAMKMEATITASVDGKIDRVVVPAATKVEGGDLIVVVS
# Description: (§1) Pyruvate carboxylate and phosphoenol pyruvate carboxylate assays were performed with permeabilized cells prepared by the following method. Log phase cells were harvested by centrifugation for 10 min at 5000×g at 4° C. and washed with 20 ml of the ice-cold washing buffer (50 mM Tris/HCl [pH 6.3] containing 50 mM NaCl). The cell pellet was resuspended in an ice-cold Hepes buffer (100 mM Hepes [pH 7.5] containing 20% Glycerol) to reach a final concentration of 25 g dry cell weight/liter. Resuspended cells were permeabilized by adding 30 μl of a 10% Hexadecyltrimethyl-ammonium bromide (CTAB) (w/v) solution to 1 ml of cells to give a final concentration of 0.3% (CTAB)(v/v). […]
# (§2) Pyruvate carboxylase activity was determined as a function of various concentrations of its substrates: pyruvate, bicarbonate and ATP (FIG. 3). Based on the data generated, the affinity constants of pyruvate carboxylase for its substrates were determined (Table 2).
# To determine the effect of aspartate on the activity of pyruvate carboxylase, aspartate was added at different concentrations in the spectrophotometer cuvette and enzyme activities were measured. […]
# (§3) Pyruvate carboxylase activity was measured in the presence of different concentrations of acetyl-CoA (FIG. 6). […]
# [4] = target: Corynebacterium glutamicum NRRL B-11474 (BF100) pyruvate carboxylase, feedback-resistant variant (M1V, E153D, A182S, A206S, H227R, A455G, D1120E), SEQ ID NO:2 (Corynebacterium glutamicum, UniProt H7C7K2, A182S/A206S/A455G/D1120E/E153D/H227R/M1V)
# Description: Pyruvate carboxylate and phosphoenol pyruvate carboxylate assays were performed with permeabilized cells prepared by the following method. Log phase cells were harvested by centrifugation for 10 min at 5000×g at 4° C. and washed with 20 ml of the ice-cold washing buffer (50 mM Tris/HCl [pH 6.3] containing 50 mM NaCl). The cell pellet was resuspended in an ice-cold Hepes buffer (100 mM Hepes [pH 7.5] containing 20% Glycerol) to reach a final concentration of 25 g dry cell weight/liter. Resuspended cells were permeabilized by adding 30 μl of a 10% Hexadecyltrimethyl-ammonium bromide (CTAB) (w/v) solution to 1 ml of cells to give a final concentration of 0.3% (CTAB)(v/v).
# The reaction was started at 30° C. with the addition of 10 μl of the permeabilized cell suspension, and the formation of DTNB-thiophenolate was followed over time at 412 nm. Relevant standards and controls were carried out in the same manner.
# (§4) To account for the intrinsic loss of OAA during the experiment, a continuous assay was carried out by coupling the two-reaction assay to a one-reaction assay in presence of an excess of citrate synthase. The amount of permeabilized cells added in the assay was optimized to obtain a detectable activity, with the lowest possible background absorbency due to the presence of cells.
# as §2
# To determine the effect of aspartate on the activity of pyruvate carboxylase, aspartate was added at different concentrations in the spectrophotometer cuvette and enzyme activities were measured. As a comparison, the same experiment was carried out with PEPC in ATCC 21253 (FIG. 5).
# Pyruvate carboxylase activity was measured in the presence of different concentrations of acetyl-CoA (FIG. 6). […] The effect of acetyl-CoA on citrate synthase itself was studied also.
# [5] = tested on: pyruvate carboxylase; experiment: Controls for the continuous pyruvate carboxylate assay; assay type: biochemical, Corynebacterium glutamicum; details: complete mixture + biotin (complete mixture alone 0.30)
# Description: For determination of pyruvate carboxylate activity, the assay mixture contained 10 mM pyruvic acid, 14 mM KHCO3, 4 mM MgCl2, 1.75 mM ATP, 50 μmole acetyl-CoA, 0.3 mg bovine serum albumin, 0.055 U citrate synthase and 50 mM sodium phosphate buffer ([pH 7.5] containing 0.1 mg 5,5′-Dithio-bis(2-nitrobenzoic acid) (DTNB)) in a final volume of 1 ml. The reaction was started at 30° C. with the addition of 10 μl of the permeabilized cell suspension, and the formation of DTNB-thiophenolate was followed over time at 412 nm. Relevant standards and controls were carried out in the same manner.
# as §4
# To confirm that the continuous assay specifically detected pyruvate carboxylase activity, controls were carried out by assaying for activity in absence of each reaction component (Table 1). Using these controls, the detected activity was determined to be a carboxylation reaction requiring pyruvate, Mg and ATP.
# [6] = tested on: pyruvate carboxylase from ATCC 21253; experiment: Effect of aspartate, ATP and acetyl-CoA on pyruvate carboxylase activity, strain ATCC 21253; assay type: biochemical, Corynebacterium glutamicum
# Description: as §1
# (§5) Pyruvate carboxylase activity was determined as a function of various concentrations of its substrates: pyruvate, bicarbonate and ATP (FIG. 3). Based on the data generated, the affinity constants of pyruvate carboxylase for its substrates were determined (Table 2). […]
# (§6) Aspartate inhibits phosphoenol pyruvate carboxylase (PEPC) activity. To determine the effect of aspartate on the activity of pyruvate carboxylase, aspartate was added at different concentrations in the spectrophotometer cuvette and enzyme activities were measured. […]
# as §3
# [7] = tested on: pyruvate carboxylase from NRRL B-11474; experiment: Effect of aspartate, ATP and acetyl-CoA on pyruvate carboxylase activity, strain NRRL B-11474; assay type: biochemical, Corynebacterium glutamicum
# Description: as §1, §5, §6, §3
# [8] = tested on: citrate synthase; experiment: Effect of acetyl-CoA on citrate synthase; assay type: biochemical; details: acetyl-CoA on citrate synthase itself
# Description: Pyruvate carboxylase activity was measured in the presence of different concentrations of acetyl-CoA (FIG. 6). Pyruvate carboxylase activity in both strains increased with increasing acetyl-CoA concentrations. The effect of acetyl-CoA on citrate synthase itself was studied also. […] Therefore, the increasing activity of pyruvate carboxylase with increasing acetyl-CoA concentration is the result of acetyl-CoA activating pyruvate carboxylase.
# [9] = tested on: pyruvate carboxylase; experiment: Continuous pyruvate carboxylase assay with permeabilized cells: affinity constants for substrates and basal activity; assay type: biochemical, Corynebacterium glutamicum; details: NRRL B-11474 versus ATCC 21253
# [10] = ATP above a concentration of 2 mM
# [11] = different concentrations of acetyl-CoA
molecule,measurement,setting,value
"Corynebacterium glutamicum NRRL B-11474 (BF100) pyruvate carboxylase, feedback-resistant variant (M1V, E153D, A182S, A206S, H227R, A455G, D1120E), SEQ ID NO:2 (Corynebacterium glutamicum ATCC 13032; A182S/A206S/A455G/D1120E/E153D/H227R/M1V)",Km,[1],400 ± 100 µM
same,Km,[2],1300 ± 300 µM
"O=C(O)O [HCO3−, bicarbonate]",Km,"[3]; permeabilized cells, pH 7.5, 30° C., read-out: KM(HCO3−)",2900 ± 800 µM
same,Km,"[4]; read-out: KM(HCO3−), permeabilized cells, pH 7.5, 30° C.",14400 ± 4000 µM
O=C(O)CCCC[C@@H]1SC[C@@H]2NC(=O)N[C@@H]21 [biotin],Detected Activity,[5],0.35 Abs/min.mg DCW
"Nc1ncnc2c1ncn2[C@@H]1O[C@H](COP(=O)(O)OP(=O)(O)OP(=O)(O)O)[C@@H](O)[C@H]1O [ATP, adenosine triphosphate]",inhibition of pyruvate carboxylase activity by ATP,[3]; [10],inhibited
same,inhibition of pyruvate carboxylase activity by ATP,[4]; [10],inhibited
same,ATP concentration above which activity is inhibited,[6],> 2 mM
same,ATP concentration above which activity is inhibited,[7],> 2 mM
CC(=O)SCCNC(=O)CCNC(=O)[C@H](O)C(C)(C)COP(=O)(O)OP(=O)(O)OC[C@H]1O[C@@H](n2cnc3c(N)ncnc32)[C@H](O)[C@@H]1OP(=O)(O)O [acetyl-CoA],pyruvate carboxylase activity with increasing acetyl-CoA concentrations,[6]; [11],increased
same,Km,[8],10 µM
same,pyruvate carboxylase activity with increasing acetyl-CoA concentrations,[7]; [11],increased
"Pyc: feedback-resistant pyruvate carboxylase (SEQ ID NO:2) from Corynebacterium glutamicum NRRL B-11474, also known as BF100 (protein) MTAITLGGLLLKGIITLVSTHTSSTLPAFKKILVANRGEIAVRAFRAALETGAATVAIYPREDRGSFHRSFASEAVRIGTEGSPVKAYLDIDEIIGAAKKVKADAIYPGYGFLSENAQLARECAENGITFIGPTPEVLDLTGDKSRAVTAAKKAGLPVLAESTPSKNIDDIVKSAEGQTYPIFVKAVAGGGGRGMRFVSSPDELRKLATEASREAEAAFGDGSVYVERAVINPQHIEVQILGDRTGEVVHLYERDCSLQRRHQKVVEIAPAQHLDPELRDRICADAVKFCRSIGYQGAGTVEFLVDEKGNHVFIEMNPRIQVEHTVTEEVTEVDLVKAQMRLAAGATLKELGLTQDKIKTHGAALQCRITTEDPNNGFRPDTGTITAYRSPGGAGVRLDGAAQLGGEITAHFDSMLVKMTCRGSDFETAVARAQRALAEFTVSGVATNIGFLRALLREEDFTSKRIATGFIGDHPHLLQAPPADDEQGRILDYLADVTVNKPHGVRPKDVAAPIDKLPNIKDLPLPRGSRDRLKQLGPAAFARDLREQDALAVTDTTFRDAHQSLLATRVRSFALKPAAEAVAKLTPELLSVEAWGGATYDVAMRFLFEDPWDRLDELREAMPNVNIQMLLRGRNTVGYTPYPDSVCRAFVKEAASSGVDIFRIFDALNDVSQMRPAIDAVLETNTAVAEVAMAYSGDLSDPNEKLYTLDYYLKMAEEIVKSGAHILAIKDMAGLLRPAAVTKLVTALRREFDLPVHVHTHDTAGGQLATYFAAAQAGADAVDGASAPLSGTTSQPSLSAIVAAFAHTRRDTGLSLEAVSDLEPYWEAVRGLYLPFESGTPGPTGRVYRHEIPGGQLSNLRAQATALGLADRFELIEDNYAAVNEMLGRPTKVTPSSKVVGDLALHLVGAGVDPADFAADPQKYDIPDSVIAFLRGELGNPPGGWPEPLRTRALEGRSEGKAPLTEVPEEEQAHLDADDSKERRNSLNRLLFPKPTEEFLEHRRRFGNTSALDDREFFYGLVEGRETLIRLPDVRTPLLVRLDAISEPDDKGMRNVVANVNGQIRPMRVRDRSVESVTATAEKADSSNKGHVAAPFAGVVTVTVAEGDEVKAGDAVAIIEAMKMEATITASVDGKIERVVVPAATKVEGGDLIVVVS",basal pyruvate carboxylase activity relative to ATCC 21253,[9],about 5 times
